Measurements reported in US20260015325A1, “ALKOXY HETEROARYL- CARBOXAMIDE OR THIOAMIDE COMPOUNDS” (SYNGENTA CROP PROTECTION AG, priority 2022, published 2026).

test system: Myzus persicae (Green Peach Aphid); test: Myzus persicae (Green Peach Aphid): feeding/contact activity, sunflower leaf discs; type: in vivo; conditions: foliar, 144 h, application rate of 200 ppm, mixed ages on sprayed sunflower leaf discs, 6 days after infestation, read-out: mortality
Procedure: Example B6: Myzus persicae (Green Peach Aphid): Feeding/Contact Activity
Sunflower leaf discs were placed onto agar in a 24-well microtiter plate and sprayed with aqueous test solutions prepared from 10′000 ppm DMSO stock solutions. After drying, the leaf discs were infested with an aphid population of mixed ages. The samples were assessed for mortality 6 days after infestation.

| SMILES | mortality at 200 ppm [%] |
| --- | --- |
| Cc1ncc(OC[C@H](C)NS(=O)(=O)C(F)(F)F)cc1C(=O)NC(C)C [Compound P-34, N-isopropyl-2-methyl-5-[(2S)-2-(trifluoromethylsulfonylamino)propoxy]pyridine-3-carboxamide] | ≥ 80 |
| CCNC(=O)c1cc(OC[C@H](C)NS(=O)(=O)C(F)(F)F)cnc1C [Compound P-36, N-ethyl-2-methyl-5-[(2S)-2-(trifluoromethylsulfonylamino)propoxy]pyridine-3-carboxamide] | ≥ 80 |
| Cc1ncc(OC[C@H](C)NS(=O)(=O)C(F)(F)F)cc1C(=O)N(C)C1CC1 [Compound P-40, N-cyclopropyl-N,2-dimethyl-5-[(2S)-2-(trifluoromethylsulfonylamino)propoxy]pyridine-3-carboxamide] | ≥ 80 |
| C[C@@H](COc1cnc(Cl)c(C(=O)NCC(=O)NCC2CC2)c1)NS(=O)(=O)C(F)(F)F [Compound P-53, 2-chloro-N-[2-(cyclopropylmethylamino)-2-oxo-ethyl]-5-[(2S)-2-(trifluoromethylsulfonylamino)propoxy]pyridine-3-carboxamide] | ≥ 80 |
| C[C@@H](COc1cnc(Cl)c(C(=O)N(C)CC(F)F)c1)NS(=O)(=O)C(F)(F)F [Compound P-59, 2-chloro-N-(2,2-difluoroethyl)-N-methyl-5-[(2S)-2-(trifluoromethylsulfonylamino)propoxy]pyridine-3-carboxamide] | ≥ 80 |
| Cc1cnc(OC[C@H](C)NS(=O)(=O)C(F)(F)F)cc1C(=O)N(C)C1(C#N)CC1 [Compound P-67, N-(1-cyanocyclopropyl)-N,5-dimethyl-2-[(2S)-2-(trifluoromethylsulfonylamino)propoxy]pyridine-4-carboxamide] | ≥ 80 |
| CCc1ncsc1NC(=O)c1cc(OC[C@H](C)NS(=O)(=O)C(F)(F)F)ncc1C [Compound P-68, N-(4-ethylthiazol-5-yl)-5-methyl-2-[(2S)-2-(trifluoromethylsulfonylamino)propoxy]pyridine-4-carboxamide] | ≥ 80 |
| Cc1cnc(OC[C@H](C)NS(=O)(=O)C(F)(F)F)cc1C(=O)NCc1ccc2c(c1)COC2 [Compound P-69, N-(1,3-dihydroisobenzofuran-5-ylmethyl)-5-methyl-2-[(2S)-2-(trifluoromethylsulfonylamino)propoxy]pyridine-4-carboxamide] | ≥ 80 |
| COCCC#CC(C)(C)NC(=O)c1cc(OC[C@H](C)NS(=O)(=O)C(F)(F)F)ncc1C [Compound P-72, N-(5-methoxy-1,1-dimethyl-pent-2-ynyl)-5-methyl-2-[(2S)-2-(trifluoromethylsulfonylamino)propoxy]pyridine-4-carboxamide] | ≥ 80 |
| Cc1cnc(OC[C@H](C)NS(=O)(=O)C(F)(F)F)cc1C(=O)NC(C)C1CC1 (stereo partly drawn) [Compound P-73, N-(1-cyclopropylethyl)-5-methyl-2-[(2S)-2-(trifluoromethylsulfonylamino)propoxy]pyridine-4-carboxamide] | ≥ 80 |
| Cc1cnc(OC[C@H](C)NS(=O)(=O)C(F)(F)F)cc1C(=O)Nc1cccc(C#N)c1F [Compound P-75, N-(3-cyano-2-fluoro-phenyl)-5-methyl-2-[(2S)-2-(trifluoromethylsulfonylamino)propoxy]pyridine-4-carboxamide] | ≥ 80 |
| Cc1cnc(OC[C@H](C)NS(=O)(=O)C(F)(F)F)cc1C(=O)NC(C)c1cccnc1 (stereo partly drawn) [Compound P-76, 5-methyl-N-[1-(3-pyridyl)ethyl]-2-[(2S)-2-(trifluoromethylsulfonylamino)propoxy]pyridine-4-carboxamide] | ≥ 80 |
